Assay results: US10239884B2, “Coelenterazine compounds and uses thereof” (KEIO UNIVERSITY, priority 2017, dated 2019)

Key:
RLuc8.6-535 [1] = target: T1, RLuc8.6-535 (Renilla reniformis, UniProt P27652, A123S/A143M/A55T/C124A/D154M/D162E/E155G/I163L/K136R/M185L/M253L/S130A/S287L); format: biochemical; set-up: expressed in transfected cells; host or cells: COST cells (so in the source); details: for RLuc8.6-535 luminescence intensity (%): 2 μM substrate in PBS pH 7.4, cell lysate, maximum intensity over 1 second, relative value
T1 sequence (P27652 whole entry A55T/A123S/C124A/S130A/K136R/A143M/D154M/E155G/D162E/I163L/M185L/M253L/S287L): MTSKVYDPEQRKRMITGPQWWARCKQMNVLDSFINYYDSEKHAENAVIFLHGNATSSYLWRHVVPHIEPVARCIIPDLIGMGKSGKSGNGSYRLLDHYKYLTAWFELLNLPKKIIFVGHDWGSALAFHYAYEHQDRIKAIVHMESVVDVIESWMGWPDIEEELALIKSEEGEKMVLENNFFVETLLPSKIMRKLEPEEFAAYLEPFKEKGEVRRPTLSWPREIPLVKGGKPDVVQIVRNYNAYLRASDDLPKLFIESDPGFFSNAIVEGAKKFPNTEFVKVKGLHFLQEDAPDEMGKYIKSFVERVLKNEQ
Excerpt: (§1) The luciferases were respectively expressed in COST cells using an expression vector (pcDNA3.1(+), commercially available from Invitrogen) comprising the sequence encoding native Renilla Luciferase (RLuc) (trade name pGL4.75, commercially available from Promega) or an expression vector (trade name pcDNA3.1(+), commercially available from Invitrogen) comprising the sequence encoding a RLuc derivative RLuc8 or RLuc8.6-535 (Reference: Loening, A. M. et al., Nat. Methods, 2007, 4, 641-643.). The cells were lysed using a Renilla Luciferase Lysis Buffer (E291A, Promega), and the lysate was directly used as an enzyme solution. […] Bioluminescence was measured according to the protocol of Renilla Luciferase Assay System (Cat. No. E 2810; Promega). The luminescent substrate was dissolved in methanol to prepare a 2 mM solution. The solution was diluted to 2 μM with PBS buffer (pH 7.4), and the diluted solution was used as a substrate solution. To 200 μL of the substrate solution, 4 μL of the cell lysate containing RLuc, RLuc 8 or RLuc8.6-535 was added to start the luminescent reaction. The luminescence intensity was measured with a Berthold Lumat LB 9507 for 1 second, and indicated by the maximum luminescence intensity (I). The luminescence intensity of the native CTZ by RLuc8 was set to be 1.0, and the other bioluminescence intensities were normalized to be relative values to that of native CTZ.

RLuc8 [2] = target: T2, RLuc8 (Renilla reniformis, UniProt P27652, A143M/A55T/C124A/K136R/M185V/M253L/S130A/S287L); format: biochemical; details: bioluminescence spectrum, ATTO LumiFL
T2 construct: expressed in transfected cells; host or cells: COST cells (so in the source)
T2 sequence (P27652 whole entry A55T/C124A/S130A/K136R/A143M/M185V/M253L/S287L): as the sequence (P27652 whole entry A55T/A123S/C124A/S130A/K136R/A143M/D154M/E155G/D162E/I163L/M185L/M253L/S287L) above, with S123A, M154D, G155E, E162D, L163I, L185V counted along it
Protocol: (§2) As in the method for measuring bioluminescence intensity described above, luminescence spectrum was measured according to the protocol of Renilla Luciferase Assay System (Cat. No. E 2810; Promega). The luminescence spectrum was measured using ATTO LumiFL. The maximum luminescence intensities were normalized to be relative values to 1.0 upon determination of the maximum luminescence wavelength.

RLuc8 [3] = target: T2, RLuc8; format: biochemical; details: 2 μM substrate in PBS pH 7.4, cell lysate, maximum intensity over 1 second, relative value
Excerpt: as §1

[4] = target: T3, native Renilla Luciferase (RLuc) (Renilla reniformis, UniProt P27652); test: Bioluminescence intensity, Renilla Luciferase luminescence system; format: biochemical; details: 2 μM substrate in PBS pH 7.4, cell lysate, maximum intensity over 1 second, relative value
T3 construct: expressed in transfected cells; host or cells: COST cells (so in the source)
T3 sequence (P27652 1-311): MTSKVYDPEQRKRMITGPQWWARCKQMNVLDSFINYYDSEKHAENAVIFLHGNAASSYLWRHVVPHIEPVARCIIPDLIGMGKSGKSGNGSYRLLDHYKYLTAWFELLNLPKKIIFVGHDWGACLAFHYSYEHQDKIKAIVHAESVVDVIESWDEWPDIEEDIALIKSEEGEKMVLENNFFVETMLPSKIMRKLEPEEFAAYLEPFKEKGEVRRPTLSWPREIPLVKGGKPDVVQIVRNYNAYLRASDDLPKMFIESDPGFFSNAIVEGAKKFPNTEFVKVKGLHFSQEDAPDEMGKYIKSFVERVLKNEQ
Excerpt: as §1, with “To 200 μL of the substrate solution, 4 μL of the cell lysate containing RLuc, RLuc 8 or RLuc8.6-535 was added to start the luminescent reaction.” left out

RLuc8.6-535 [5] = target: T1, RLuc8.6-535; format: biochemical; set-up: expressed in transfected cells; host or cells: COST cells (so in the source); details: bioluminescence spectrum, ATTO LumiFL
Protocol: as §2

[6] = target: T4, Renilla Luciferase (RLuc) (Renilla reniformis, UniProt P27652); details: cited from earlier work
T4 sequence (P27652 1-311): T3 sequence (P27652 1-311)

ALuc30 = test: Bioluminescence intensity, ALuc system test; format: biochemical; details: 1 μM substrate, relative to nCTZ/ALuc34
RLuc8.6-535 [7] = target: T1, RLuc8.6-535; test: Bioluminescence intensity, ALuc system test; format: biochemical; set-up: expressed in transfected cells; details: 1 μM substrate, relative to nCTZ/ALuc34
Protocol: (§3) The cells were lysed using a Renilla Luciferase Buffer (E291A; Promega), and the lysate was directly used as an enzyme solution. As luminescent substrates, native CTZ (Nanolight technology) and 6-Al2N3-CTZ (Example 17) were used. Bioluminescence was measured according to the protocol of a Renilla Luciferase Assay System (Cat. No. E2810; Promega). The luminescent substrate was dissolved in methanol to prepare a 1 mM solution. The solution was diluted to 1 μM with Promega buffer, and the diluted solution was used as a substrate solution. To 40 μL of the substrate solution, 10 μL of the cell lysate containing RLuc8.6-535, ALuc16, ALuc22, ALuc23 or ALuc34 was added for starting the luminescent reaction. Using Fujifilm LAS-4000, the luminescence intensities were measured 0 and 20 minutes after the start of the enzyme reaction. Further, from the results of bioluminescence intensity shown in FIG. 3, the bioluminescence intensities were summarized in Tables 4-1 and 4-2 below, where the luminescence intensities were normalized to be the relative values of nCTZ/ALuc34 (100%).

ALuc24 = test: Bioluminescence intensity, ALuc system test; format: biochemical; details: 1 μM substrate, relative to nCTZ/ALuc34
ALuc34 = test: Bioluminescence intensity, ALuc system test; format: biochemical; details: for luminescence intensity (%): 1 μM substrate, relative to nCTZ/ALuc34
Protocol: as §3

ALuc16 = test: Bioluminescence intensity, ALuc system test; format: biochemical; details: 1 μM substrate, relative to nCTZ/ALuc34
Protocol: as §3

ALuc23 = test: Bioluminescence intensity, ALuc system test; format: biochemical; details: 1 μM substrate, relative to nCTZ/ALuc34
Protocol: as §3

ALuc22 = test: Bioluminescence intensity, ALuc system test; format: biochemical; details: 1 μM substrate, relative to nCTZ/ALuc34
Protocol: as §3

NanoLuc = target: T5, NanoLuc (Oplophorus gracilirostris, UniProt Q9GV45, A31E/A60N/A81I/F95D/I117V/K70R/L54V/L99Q/M102K/N193R/P142E/Q151K/Q38R/Q45L/V71I/Y165I); details: combined with NanoLuc; cited from earlier work
T5 construct: literature Promega
T5 sequence (Q9GV45 28-196 with tags or gaps with the stated changes limits assumed): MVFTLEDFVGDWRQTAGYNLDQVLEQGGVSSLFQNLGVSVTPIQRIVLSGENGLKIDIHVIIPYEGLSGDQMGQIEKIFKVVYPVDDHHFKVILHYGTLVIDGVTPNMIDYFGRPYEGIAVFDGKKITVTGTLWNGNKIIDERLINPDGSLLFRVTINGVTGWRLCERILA

GLuc = test: Bioluminescence intensity, ALuc system test; format: biochemical; details: 0 minutes after the start of measurement, 1 μM substrate, relative to nCTZ/ALuc34
[8] = test system: artificial bioluminescent enzyme (ALuc); details: same wavelength range (480-500 nm); cited from earlier work
[9] = ALuc30, 0 minutes after the start of measurement
[10] = ALuc30, 20 minutes after the start of measurement
[11] = RLuc8.6-535, 0 minutes after the start of measurement
[12] = ALuc24, 0 minutes after the start of measurement
[13] = ALuc24, 20 minutes after the start of measurement
[14] = ALuc34, 0 minutes after the start of measurement
[15] = ALuc34, 20 minutes after the start of measurement
[16] = ALuc16, 0 minutes after the start of measurement
[17] = ALuc16, 20 minutes after the start of measurement
[18] = ALuc23, 0 minutes after the start of measurement
[19] = ALuc23, 20 minutes after the start of measurement
[20] = ALuc22, 0 minutes after the start of measurement
[21] = ALuc22, 20 minutes after the start of measurement

O=c1c(Cc2ccc(O)cc2)nc2c(Cc3ccccc3)[nH]c(-c3ccc(OCCCO)cc3)cn1-2 [6-Alkyl3OH-CTZ]
RLuc8.6-535 luminescence intensity (%) (RLuc8.6-535 [1]): 75.3% | luminescence intensity higher than that of DeepBlueC/RLuc8 (RLuc8.6-535 [1]; with RLuc8.6-535, versus conventional blue-shifted RLuc luminescence system (DeepBlueC/RLuc8)): 32 fold | RLuc8 half-width (nm) (RLuc8 [2]): [60] nm | RLuc8 maximum luminescence wavelength (nm) (RLuc8 [2]): 414 nm | RLuc8 luminescence intensity (%) (RLuc8 [3]): 9.74% | RLuc luminescence intensity (%) [4]: 0.11% | RLuc8.6-535 half-width (nm) (RLuc8.6-535 [5]): [56] nm | RLuc8.6-535 maximum luminescence wavelength (nm) (RLuc8.6-535 [5]): 415 nm

O=c1c(Cc2ccccc2)nc2c(Cc3ccccc3)[nH]c(-c3ccccc3)cn1-2 [DeepBlueC (trade name), reference compound]
RLuc8.6-535 luminescence intensity (%) (RLuc8.6-535 [1]): 5.80% | luminescence intensity relative to the native RLuc luminescence system [6]: about 4% | shift of luminescence wavelength to the shorter wavelength side compared to native CTZ [6]: about 80 nm | luminescence wavelength ([6]; emits light at around): around 400 nm | RLuc8 half-width (nm) (RLuc8 [2]): [57] nm | RLuc8 maximum luminescence wavelength (nm) (RLuc8 [2]): 416 nm | RLuc8 luminescence intensity (%) (RLuc8 [3]): 2.30% | RLuc8.6-535 half-width (nm) (RLuc8.6-535 [5]): [51] nm | RLuc8.6-535 maximum luminescence wavelength (nm) (RLuc8.6-535 [5]): 410 nm

[N-]=[N+]=NCCOc1ccc(-c2cn3c(=O)c(Cc4ccc(O)cc4)nc-3c(Cc3ccccc3)[nH]2)cc1 [Example 6-Al2N3-CTZ]
luminescence intensity (%) (ALuc30; [9]): 0.83% | luminescence intensity (%) (ALuc30; [10]): 0.28% | luminescence intensity (%) (RLuc8.6-535 [7]; [11]): 0.01% | luminescence intensity (%) (ALuc24; [12]): 0.56% | luminescence intensity (%) (ALuc24; [13]): 0.17% | luminescence intensity (%) (ALuc34; [14]): 3.45% | luminescence intensity (%) (ALuc34; [15]): 1.27% | luminescence intensity higher than that of native CTZ/ALuc34 (ALuc34; with ALuc34, immediately after the start of the measurement): about 3.4 fold | luminescence intensity (%) (ALuc16; [16]): 1.72% | luminescence intensity (%) (ALuc16; [17]): 0.60% | luminescence intensity (%) (ALuc23; [18]): 2.53% | luminescence intensity (%) (ALuc23; [19]): 1.00% | luminescence intensity (%) (ALuc22; [20]): 1.32% | luminescence intensity (%) (ALuc22; [21]): 0.46%

CCCCOc1ccc(-c2cn3c(=O)c(Cc4ccc(O)cc4)nc-3c(Cc3ccccc3)[nH]2)cc1 [Example 6-Alkyl3-CTZ]
RLuc8.6-535 luminescence intensity (%) (RLuc8.6-535 [1]): 39.6% | RLuc8 half-width (nm) (RLuc8 [2]): [46] nm | RLuc8 maximum luminescence wavelength (nm) (RLuc8 [2]): (413) nm | RLuc8 luminescence intensity (%) (RLuc8 [3]): 8.07% | RLuc8.6-535 half-width (nm) (RLuc8.6-535 [5]): [60] nm | RLuc8.6-535 maximum luminescence wavelength (nm) (RLuc8.6-535 [5]): 412 nm

COCc1ccc(-c2cn3c(=O)c(Cc4ccc(O)cc4)nc-3c(Cc3ccccc3)[nH]2)cc1 [Example 6-Ether-CTZ, reference compound]
RLuc8.6-535 luminescence intensity (%) (RLuc8.6-535 [1]): 8.94% | RLuc8 maximum luminescence wavelength (nm) (RLuc8 [2]): (420) nm | RLuc8 luminescence intensity (%) (RLuc8 [3]): 0.85% | RLuc8.6-535 half-width (nm) (RLuc8.6-535 [5]): [49] nm | RLuc8.6-535 maximum luminescence wavelength (nm) (RLuc8.6-535 [5]): 411 nm

CCc1ccc(-c2cn3c(=O)c(Cc4ccc(O)cc4)nc-3c(Cc3ccccc3)[nH]2)cc1 [Example 6-Ethyl-CTZ]
RLuc8.6-535 luminescence intensity (%) (RLuc8.6-535 [1]): 29.4% | RLuc8 maximum luminescence wavelength (nm) (RLuc8 [2]): (410) nm | RLuc8 luminescence intensity (%) (RLuc8 [3]): 2.68% | RLuc8.6-535 half-width (nm) (RLuc8.6-535 [5]): [60] nm | RLuc8.6-535 maximum luminescence wavelength (nm) (RLuc8.6-535 [5]): 406 nm

O=c1c(Cc2ccco2)nc2c(Cc3ccccc3)[nH]c(-c3ccccc3)cn1-2 [Furimazine]
luminescence intensity higher than that of the firefly luciferase luminescence system (NanoLuc): about 100 fold

Oc1ccc(Cc2nc3c(Cc4ccccc4)nc(-c4ccc(O)cc4)cn3c2O)cc1 [Native-CTZ, coelenterazine]
RLuc8.6-535 luminescence intensity (%) (RLuc8.6-535 [1]): 100% | quantum yield of the RLuc luminescence system ([6]; CTZ as luminescent substrate): 0.05 | luminescence intensity (%) (ALuc30; [9]): 0.28% | luminescence intensity (%) (ALuc30; [10]): 0.21% | luminescence intensity (%) (RLuc8.6-535 [7]; [11]): 0.05% | luminescence intensity (%) (RLuc8.6-535 [7]; RLuc8.6-535, 20 minutes after the start of measurement): 0.05% | luminescence intensity (%) (ALuc24; [12]): 0.40% | luminescence intensity (%) (ALuc24; [13]): 0.31% | RLuc8 half-width (nm) (RLuc8 [2]): [98] nm | RLuc8 maximum luminescence wavelength (nm) (RLuc8 [2]): 484 nm | luminescence intensity (%) (GLuc): 0.08% | RLuc8 luminescence intensity (%) (RLuc8 [3]): 80.5% | RLuc luminescence intensity (%) [4]: 10.7% | RLuc8.6-535 half-width (nm) (RLuc8.6-535 [5]): [111] nm | RLuc8.6-535 maximum luminescence wavelength (nm) (RLuc8.6-535 [5]): 538 nm | luminescence intensity (%) (ALuc34; [14]): 1.0% | luminescence intensity (%) (ALuc34; [15]): 1% | luminescence intensity (%) (ALuc16; [16]): 0.43% | luminescence intensity (%) (ALuc16; [17]): 0.42% | luminescence intensity (%) (ALuc23; [18]): 0.58% | luminescence intensity (%) (ALuc23; [19]): 0.58% | luminescence intensity (%) (ALuc22; [20]): 0.65% | luminescence intensity (%) (ALuc22; [21]): 0.42% | luminescence intensity higher than that of the conventional RLuc luminescence system [8]: about 50 fold
